Laboratory results as given in publication PMC12383718, “C-Terminal Modification Contributes the Antibacterial Activity of a Cecropin-like Region of Heteroscorpine-1 from Scorpion Venom” (Biology, 2025).
Values after ≈ are worked out from the molar mass of the structure shown. Ends that are not written are not given here.

What was measured:
[1] = system: Klebsiella pneumoniae ATCC 27736; experiment: microbe, parasite or virus in culture; format: cell-based; details: K. pneumoniae ATCC 27736, 37 °C, 16–18 h, ND = no detection at the highest tested concentration
Procedure: (§1) The following microorganisms were used to determine the minimum inhibitory concentration (MIC) and minimum bactericidal concentration (MBC) of the peptides: Gram-positive Staphylococcus aureus ATCC 25923, Gram-negative Escherichia coli ATCC 25922, Klebsiella pneumoniae ATCC 27736, and Pseudomonas aeruginosa ATCC 27853. The assays were conducted according to the protocol described by Erviana et al., with some modifications.
(§2) The antibacterial activity of the modified CeHS-1 analogs was evaluated using MIC and MBC assays. The MIC (minimum inhibitory concentration) is defined as the lowest concentration of antimicrobial peptides (AMPs) or other agents that inhibits visible bacterial growth. In contrast, the MBC (minimum bactericidal concentration) is defined as the lowest concentration of AMPs that kills 99.9% of the bacterial inoculum under the specified conditions. The determination of MIC values was performed using a 96-well plate assay. Initially, peptides were serially diluted in the wells. Then, 10 µL of bacterial inoculum, previously adjusted to a cell density of 2.2 × 10^6 CFU/mL, was added to each well. The plates were incubated at 37 °C for 16–18 h. The MIC was determined by measuring the optical density at 600 nm (OD600), with the lowest concentration of AMPs that inhibited visible bacterial growth defined as the MIC. […] The lowest concentration of AMPs at which no bacterial colonies were observed was defined as the MBC [47].

[2] = system: Staphylococcus aureus ATCC 25923; experiment: microbe, parasite or virus in culture; format: cell-based; details: S. aureus ATCC 25923, 37 °C, 16–18 h, ND = no detection at the highest tested concentration
Procedure: as §1, §2

[3] = system: Pseudomonas aeruginosa ATCC 27853; experiment: microbe, parasite or virus in culture; format: cell-based; details: P. aeruginosa ATCC 27853, 37 °C, 16–18 h, ND = no detection at the highest tested concentration
Procedure: as §1, §2

[4] = system: Escherichia coli ATCC 25922; experiment: microbe, parasite or virus in culture; format: cell-based; details: E. coli ATCC 25922, 37 °C, 16–18 h, ND = no detection at the highest tested concentration
Procedure: as §1, §2

[5] = system: S. aureus cytoplasmic membrane; format: cell-based, Staphylococcus aureus; details: S. aureus 10^6 CFU/mL in PBS, 0.25, 0.5 and 1 MIC, 1 h, 37 °C; flow cytometry; at least triplicate
Procedure: A bacterial suspension of S. aureus was cultured in LB medium to the exponential phase (OD600 = 0.5). […] Following incubation, 42 µL of SYTOX™ Green Ready Flow™ Reagent (Invitrogen, Thermo Fisher Scientific, Carlsbad, CA, USA) was added to the peptide-treated cells and incubated for an additional 10 min at 25 °C. Fluorescence emission was measured using flow cytometry. The cell population was gated based on forward scatter and side scatter parameters. Cells with compromised membranes were identified by their fluorescence (excitation at 488 nm and detection at 530 nm with a 30 nm bandpass filter). The mean fluorescence intensity and the percentage of fluorescent cells were determined by analyzing 100,000 cells per sample. Each experiment was performed in at least triplicate. Flow cytometry measurements were conducted using a BD FACSCanto II system (BD Biosciences, Wokingham, UK).

[6] = system: human red blood cells (hRBCs); experiment: Hemolytic activity assay; format: cell-based; details: 500 µg/mL peptide (highest concentration tested); 4% hRBC suspension in PBS pH 7.4, 37 °C, 1 h, absorbance 415 nm; relative to 0.1% Triton X-100
Procedure: The hemolytic activity of the peptides was assessed using human red blood cells (hRBCs), following the method described by Erviana et al., with some modifications. Briefly, a 4% hRBC suspension was prepared in 1X phosphate-buffered saline (PBS, pH 7.4). Subsequently, 100 µL of the hRBC suspension was mixed with 100 µL of peptide samples at various concentrations (500, 200, 100, 50, and 25 µg/mL) in microcentrifuge tubes. The mixture was incubated at 37 °C for 1 h, followed by centrifugation at 100× g for 5 min. The supernatant was collected and transferred to a 96-well plate for absorbance measurement at 415 nm. The hemolytic activity of each peptide was subsequently calculated using the following equation: Hemolysis (%)=S/P×100
In the above equation, S represents the absorbance at 415 nm of the sample or negative control, while P represents the absorbance at 415 nm of the positive control. The peptide solvent was used as the negative control, whereas 0.1% Triton X-100 served as the positive control.

[7] = 25 µL from wells without visible growth spread on nutrient agar
[8] = 96-well plate serial dilution, 10 µL inoculum of 2.2 × 10^6 CFU/mL, OD600

Molecule	MBC ([1]; Klebsiella pneumoniae, ATCC27736, 25 µL from wells without visible growth spread on nutrient agar)	MIC ([1]; Klebsiella pneumoniae, ATCC27736, 96-well plate serial dilution, 10 µL inoculum of 2.2 × 10^6 CFU/mL, OD600)	MBC ([2]; Staphylococcus aureus, ATCC25923, 25 µL from wells without visible growth spread on nutrient agar)	MIC ([2]; Staphylococcus aureus, ATCC25923, 96-well plate serial dilution, 10 µL inoculum of 2.2 × 10^6 CFU/mL, OD600)	MBC ([3]; Pseudomonas aeruginosa, ATCC27853, 25 µL from wells without visible growth spread on nutrient agar)	MIC ([3]; Pseudomonas aeruginosa, ATCC27853, 96-well plate serial dilution, 10 µL inoculum of 2.2 × 10^6 CFU/mL, OD600)	MBC ([4]; Escherichia coli, ATCC25922, 25 µL from wells without visible growth spread on nutrient agar)	MIC ([4]; Escherichia coli, ATCC25922, 96-well plate serial dilution, 10 µL inoculum of 2.2 × 10^6 CFU/mL, OD600)	Cytoplasmic membrane permeabilization (SYTOX Green fluorescence intensity) [5]	E. coli MBC [4, 7]	E. coli MIC [4, 8]	Hemolytic activity [6]	K. pneumoniae MBC [1, 7]	K. pneumoniae MIC [1, 8]	S. aureus MBC [2, 7]	S. aureus MIC [2, 8]	P. aeruginosa MBC [3, 7]	P. aeruginosa MIC [3, 8]
CC1(C)S[C@@H]2[C@H](NC(=O)[C@H](N)c3ccccc3)C(=O)N2[C@H]1C(=O)O [Ampicillin, reference compound]	> 256 µg/mL	> 256 µg/mL	8 µg/mL (≈ 22.9 µM)	8 µg/mL (≈ 22.9 µM)	256 µg/mL (≈ 733 µM)	128 µg/mL (≈ 366 µM)	32 µg/mL (≈ 91.6 µM)	4 µg/mL (≈ 11.4 µM)										
NC[C@H]1O[C@H](O[C@H]2[C@H](O)[C@@H](O[C@H]3O[C@H](CO)[C@@H](O)[C@H](N)[C@H]3O)[C@H](N)C[C@@H]2N)[C@H](O)[C@@H](O)[C@@H]1O [kanamycin]									low fluorescence intensity									
GWINIIKIQKKRWW-NH2 [compound 3]										256 µg/mL	128 µg/mL	7.74 ± 1.18%						
KIQKKIIKKIGRWW-NH2 [compound 6]										8 µg/mL	8 µg/mL	2.35 ± 0.20%	256 µg/mL	256 µg/mL	64 µg/mL	32 µg/mL	32 µg/mL	16 µg/mL
KKILGGMAKAVRWW-NH2 [compound 9]										32 µg/mL	8 µg/mL	2.39 ± 0.22%	128 µg/mL	128 µg/mL	128 µg/mL	64 µg/mL	128 µg/mL	64 µg/mL
VHKLAKGIFKRWW-NH2 [compound 12]										16 µg/mL	4 µg/mL	1.67 ± 0.17%	256 µg/mL	256 µg/mL	32 µg/mL	32 µg/mL	64 µg/mL	32 µg/mL
